PMC10927578, “Structural basis for CFTR inhibition by CFTRinh-172” (Proceedings of the National Academy of Sciences of the …, 2024)

Key:
WT CFTR [1] = biological target: T1, WT CFTR (Homo sapiens, UniProt P13569, C128S/C1344S/C1355S/C1395S/C1400S/C1410S/C1458S/C225S/C276S/C343S/C491S/C592M/C647S/C76L/C832S/C866S/S1435C/T388C); assay: smFRET imaging of NBD dimerization, WT CFTR; format: biochemical; settings: 10 µM CFTRinh-172, 3 mM ATP
T1 construct: GFP (PreScission Protease-cleavable) (C); made in house; host or cells: HEK293S GnTI- suspension cells infected with BacMam baculovirus

CFTR (E1371Q) [2] = biological target: T2, CFTR (E1371Q) (Homo sapiens, UniProt P13569, E1371Q); assay: Inside-out excised patch macroscopic current recording, CFTR (E1371Q); format: biochemical; settings: 10 µM CFTRinh-172; inside-out patches; PKA-phosphorylated, 3 mM ATP
T2 construct: expressed in transfected cells; host or cells: CHO-K1 (ATCC CCL-61)

T1142I CFTR = biological target: T3, T1142I CFTR (Homo sapiens, UniProt P13569, T1142I); assay: Inside-out excised patch titration, T1142I CFTR; format: biochemical; settings: inside-out patches, 3 mM ATP, Hill coefficient fixed to 1
T3 construct: expressed in transfected cells; host or cells: CHO-K1 (ATCC CCL-61)

cyst growth = system: cyst growth; design: method as in PMID 18385427; settings: animal models of polycystic kidney disease; cited from earlier work
CFTR (E1371Q) [3] = biological target: T2, CFTR (E1371Q); assay: Single-channel recording in synthetic planar lipid bilayer, CFTR (E1371Q); format: biochemical; settings: 10 µM CFTRinh-172, 3 mM ATP, -150 mV, mean and SE, 0.79 ± 0.03 without inhibitor
K95A CFTR = biological target: T4, K95A CFTR (Homo sapiens, UniProt P13569, K95A); assay: Inside-out excised patch titration, K95A CFTR; format: biochemical; settings: inside-out patches, 3 mM ATP, Hill coefficient fixed to 1
T4 construct: expressed in transfected cells; host or cells: CHO-K1 (ATCC CCL-61)

[4] = system: cholera toxin-induced intestinal fluid secretion; settings: in vivo; cited from earlier work
WT CFTR [5] = biological target: T5, WT CFTR (Homo sapiens, UniProt P13569); assay: Inside-out excised patch macroscopic current recording, WT CFTR; format: biochemical; settings: inside-out patches, 3 mM ATP
T5 construct: GFP (PreScission Protease-cleavable) (C, cleaved yes); made in house; host or cells: HEK293S GnTI- suspension cells infected with BacMam baculovirus

CFTR R347D = system: CFTR R347D; design: method as in PMID 18366345; settings: cited from earlier work
[6] = biological target: T6, PKA-phosphorylated WT CFTR (Homo sapiens, UniProt P13569); assay: Steady-state ATP hydrolysis, NADH-coupled assay; format: biochemical; settings: 10 µM CFTRinh-172
T6 construct: GFP (PreScission Protease-cleavable) (C, cleaved yes); made in house; host or cells: HEK293S GnTI- suspension cells infected with BacMam baculovirus

CFTR R347A = system: CFTR R347A; design: method as in PMID 18366345; settings: R347A vs WT CFTR; cited from earlier work
CFTR (E1371Q) [7] = biological target: T7, CFTR (E1371Q) (Homo sapiens, UniProt P13569, C128S/C1344S/C1355S/C1395S/C1400S/C1410S/C1458S/C225S/C276S/C343S/C491S/C592M/C647S/C76L/C832S/C866S/E1371Q/S1435C/T388C); assay: smFRET imaging of NBD dimerization, CFTR (E1371Q); format: biochemical; settings: with CFTRinh-172
T7 construct: GFP (PreScission Protease-cleavable) (C); made in house; host or cells: HEK293S GnTI- suspension cells infected with BacMam baculovirus

S1141A CFTR = biological target: T8, S1141A CFTR (Homo sapiens, UniProt P13569, S1141A); assay: Inside-out excised patch titration, S1141A CFTR; format: biochemical; settings: inside-out patches, 3 mM ATP
T8 construct: expressed in transfected cells; host or cells: CHO-K1 (ATCC CCL-61)

WT CFTR [8] = biological target: T5, WT CFTR; assay: Single-channel recording in synthetic planar lipid bilayer, WT CFTR; format: biochemical
CFTR = system: CFTR; design: method as in PMID 36949202; settings: cited from earlier work; for effect on channel activity: by increasing pore opening while the NBDs are dimerized

T5 sequence (P13569 whole entry): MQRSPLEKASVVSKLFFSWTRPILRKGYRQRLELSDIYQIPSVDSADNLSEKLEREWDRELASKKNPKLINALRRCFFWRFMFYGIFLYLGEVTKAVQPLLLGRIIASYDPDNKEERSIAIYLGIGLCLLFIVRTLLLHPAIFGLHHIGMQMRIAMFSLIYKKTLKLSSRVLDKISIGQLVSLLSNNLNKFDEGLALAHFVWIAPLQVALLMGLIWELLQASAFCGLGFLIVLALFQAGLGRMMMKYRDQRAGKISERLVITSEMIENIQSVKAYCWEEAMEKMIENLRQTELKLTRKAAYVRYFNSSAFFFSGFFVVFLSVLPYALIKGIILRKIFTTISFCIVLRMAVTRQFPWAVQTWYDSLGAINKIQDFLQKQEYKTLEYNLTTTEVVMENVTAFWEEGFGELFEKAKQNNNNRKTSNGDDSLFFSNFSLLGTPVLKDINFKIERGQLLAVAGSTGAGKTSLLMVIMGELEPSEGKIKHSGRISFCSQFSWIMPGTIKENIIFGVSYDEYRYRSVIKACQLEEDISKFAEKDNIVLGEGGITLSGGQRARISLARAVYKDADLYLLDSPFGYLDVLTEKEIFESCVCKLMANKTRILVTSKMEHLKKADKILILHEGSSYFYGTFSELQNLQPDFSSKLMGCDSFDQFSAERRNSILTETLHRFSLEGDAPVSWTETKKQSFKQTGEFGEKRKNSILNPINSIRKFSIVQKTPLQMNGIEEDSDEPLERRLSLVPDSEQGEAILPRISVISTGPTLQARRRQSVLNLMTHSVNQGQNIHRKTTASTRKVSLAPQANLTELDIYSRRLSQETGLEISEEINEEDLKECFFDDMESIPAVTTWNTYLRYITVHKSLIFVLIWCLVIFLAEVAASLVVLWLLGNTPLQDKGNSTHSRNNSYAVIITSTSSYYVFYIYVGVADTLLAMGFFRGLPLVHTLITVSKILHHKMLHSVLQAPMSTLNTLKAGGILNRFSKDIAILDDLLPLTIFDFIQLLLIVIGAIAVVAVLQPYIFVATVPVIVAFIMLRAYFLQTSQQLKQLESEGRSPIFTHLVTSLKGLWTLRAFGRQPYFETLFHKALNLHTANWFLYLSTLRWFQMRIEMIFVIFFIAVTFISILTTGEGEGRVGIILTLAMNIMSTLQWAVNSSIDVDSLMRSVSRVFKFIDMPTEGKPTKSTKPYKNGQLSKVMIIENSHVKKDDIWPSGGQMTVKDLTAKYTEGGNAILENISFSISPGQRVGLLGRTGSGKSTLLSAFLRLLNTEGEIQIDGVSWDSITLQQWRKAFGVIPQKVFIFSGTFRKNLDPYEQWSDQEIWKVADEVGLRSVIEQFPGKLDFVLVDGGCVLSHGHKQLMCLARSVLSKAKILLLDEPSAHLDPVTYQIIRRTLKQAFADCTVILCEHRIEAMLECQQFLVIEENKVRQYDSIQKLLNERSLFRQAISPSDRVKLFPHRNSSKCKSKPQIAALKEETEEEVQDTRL
T1 sequence (P13569 1-1480 with the stated changes): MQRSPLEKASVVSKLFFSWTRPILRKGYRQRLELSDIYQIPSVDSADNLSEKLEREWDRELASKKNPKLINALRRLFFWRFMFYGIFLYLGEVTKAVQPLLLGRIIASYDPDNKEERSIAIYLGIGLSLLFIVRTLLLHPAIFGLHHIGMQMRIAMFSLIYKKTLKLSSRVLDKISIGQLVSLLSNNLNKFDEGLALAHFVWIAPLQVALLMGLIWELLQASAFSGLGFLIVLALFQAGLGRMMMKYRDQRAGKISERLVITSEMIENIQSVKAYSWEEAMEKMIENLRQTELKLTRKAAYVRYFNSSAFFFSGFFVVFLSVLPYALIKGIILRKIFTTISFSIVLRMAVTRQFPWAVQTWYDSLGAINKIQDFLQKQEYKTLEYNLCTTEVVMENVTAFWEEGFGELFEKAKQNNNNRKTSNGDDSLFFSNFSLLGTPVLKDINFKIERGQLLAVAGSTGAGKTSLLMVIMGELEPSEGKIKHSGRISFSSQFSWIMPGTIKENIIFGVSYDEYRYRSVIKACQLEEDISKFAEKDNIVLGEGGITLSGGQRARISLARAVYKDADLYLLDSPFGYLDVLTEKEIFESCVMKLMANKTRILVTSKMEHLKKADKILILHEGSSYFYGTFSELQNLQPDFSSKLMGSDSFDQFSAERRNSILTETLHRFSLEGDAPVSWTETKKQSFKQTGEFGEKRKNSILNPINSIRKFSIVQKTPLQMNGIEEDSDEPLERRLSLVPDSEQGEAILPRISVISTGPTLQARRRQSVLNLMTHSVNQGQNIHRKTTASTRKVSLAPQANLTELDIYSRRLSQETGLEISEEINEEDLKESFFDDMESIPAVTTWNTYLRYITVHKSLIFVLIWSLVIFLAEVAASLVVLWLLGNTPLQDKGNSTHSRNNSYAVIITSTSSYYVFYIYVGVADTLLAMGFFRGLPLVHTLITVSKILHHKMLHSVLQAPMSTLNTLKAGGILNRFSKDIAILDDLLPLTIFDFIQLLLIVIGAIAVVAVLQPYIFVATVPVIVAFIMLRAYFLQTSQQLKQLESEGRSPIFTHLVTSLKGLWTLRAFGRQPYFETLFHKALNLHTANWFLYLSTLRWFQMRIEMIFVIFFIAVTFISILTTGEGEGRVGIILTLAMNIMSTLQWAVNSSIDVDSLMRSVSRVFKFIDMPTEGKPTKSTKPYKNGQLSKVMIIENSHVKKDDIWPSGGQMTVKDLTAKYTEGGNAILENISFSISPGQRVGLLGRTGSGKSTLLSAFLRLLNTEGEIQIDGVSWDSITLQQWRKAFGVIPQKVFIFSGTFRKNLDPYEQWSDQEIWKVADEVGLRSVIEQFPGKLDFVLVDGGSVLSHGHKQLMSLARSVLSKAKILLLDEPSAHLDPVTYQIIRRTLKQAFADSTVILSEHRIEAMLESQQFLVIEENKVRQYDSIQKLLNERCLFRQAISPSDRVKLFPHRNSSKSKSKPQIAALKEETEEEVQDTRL
T6 sequence (P13569 whole entry): as the sequence (P13569 whole entry) above
T2 sequence (P13569 whole entry E1371Q): as the sequence (P13569 whole entry) above, with E1371Q counted along it
T8 sequence (P13569 whole entry S1141A): as the sequence (P13569 whole entry) above, with S1141A counted along it
T7 sequence (P13569 1-1480 with the stated changes): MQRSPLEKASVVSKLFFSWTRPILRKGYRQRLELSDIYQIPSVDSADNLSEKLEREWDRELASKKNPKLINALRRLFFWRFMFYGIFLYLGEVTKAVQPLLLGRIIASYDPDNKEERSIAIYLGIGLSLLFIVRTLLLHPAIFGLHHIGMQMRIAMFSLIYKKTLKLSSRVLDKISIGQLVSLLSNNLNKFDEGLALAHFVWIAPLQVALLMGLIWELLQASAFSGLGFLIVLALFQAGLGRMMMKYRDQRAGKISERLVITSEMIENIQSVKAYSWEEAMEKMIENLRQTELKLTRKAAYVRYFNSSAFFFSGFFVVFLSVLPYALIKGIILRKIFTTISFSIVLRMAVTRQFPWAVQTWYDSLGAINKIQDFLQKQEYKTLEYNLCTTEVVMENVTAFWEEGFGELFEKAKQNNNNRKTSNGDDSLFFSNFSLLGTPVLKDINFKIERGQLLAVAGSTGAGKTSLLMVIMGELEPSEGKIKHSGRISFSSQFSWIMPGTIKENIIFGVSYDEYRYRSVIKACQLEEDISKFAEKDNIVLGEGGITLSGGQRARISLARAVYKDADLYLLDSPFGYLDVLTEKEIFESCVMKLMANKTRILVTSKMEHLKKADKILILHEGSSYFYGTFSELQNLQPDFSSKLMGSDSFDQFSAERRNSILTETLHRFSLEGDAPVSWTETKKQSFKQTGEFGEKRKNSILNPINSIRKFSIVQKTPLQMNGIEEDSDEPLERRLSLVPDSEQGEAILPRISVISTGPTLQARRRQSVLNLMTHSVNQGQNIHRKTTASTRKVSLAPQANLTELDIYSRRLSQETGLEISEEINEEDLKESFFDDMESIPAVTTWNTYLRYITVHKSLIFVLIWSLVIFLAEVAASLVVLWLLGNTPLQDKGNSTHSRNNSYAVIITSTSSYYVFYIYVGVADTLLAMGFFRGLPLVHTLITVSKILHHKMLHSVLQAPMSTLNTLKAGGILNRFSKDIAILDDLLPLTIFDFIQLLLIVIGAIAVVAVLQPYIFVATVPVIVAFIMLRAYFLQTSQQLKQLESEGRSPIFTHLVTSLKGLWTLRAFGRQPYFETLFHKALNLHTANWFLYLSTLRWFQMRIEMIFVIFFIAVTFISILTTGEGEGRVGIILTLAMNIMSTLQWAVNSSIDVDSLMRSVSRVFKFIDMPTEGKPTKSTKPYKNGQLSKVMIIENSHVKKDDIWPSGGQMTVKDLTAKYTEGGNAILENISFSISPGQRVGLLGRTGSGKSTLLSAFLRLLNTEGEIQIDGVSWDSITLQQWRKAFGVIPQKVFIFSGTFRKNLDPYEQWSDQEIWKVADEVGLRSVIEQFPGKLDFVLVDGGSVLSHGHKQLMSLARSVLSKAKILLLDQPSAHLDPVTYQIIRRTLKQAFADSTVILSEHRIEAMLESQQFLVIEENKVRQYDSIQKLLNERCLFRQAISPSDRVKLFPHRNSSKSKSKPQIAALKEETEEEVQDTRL
T4 sequence (P13569 whole entry K95A): as the sequence (P13569 whole entry) above, with K95A counted along it
T3 sequence (P13569 whole entry T1142I): as the sequence (P13569 whole entry) above, with T1142I counted along it

| SMILES | effect on dwell time of the NBD-dimerized state (WT CFTR [1]) | effect on probability of NBD dimerization (WT CFTR [1]) | inhibition of macroscopic current relative to WT CFTR (CFTR (E1371Q) [2]) | IC50 (T1142I CFTR) [µM] | cyst growth (cyst growth) | open probability (CFTR (E1371Q) [3]) | IC50 (K95A CFTR) [µM] | cholera toxin-induced intestinal fluid secretion [4] | reduction of macroscopic current (WT CFTR [5]; 10 µM CFTRinh-172, PKA-phosphorylated) [%] | IC50 (WT CFTR [5]; WT CFTR, Hill coefficient fixed to 1) [µM] | effect of R347D substitution on inhibition (CFTR R347D) | change of Michaelis-Menten constant (Km) for ATP [6] | saturating ATP turnover (kcat) ([6]; 22.0 ± 2.2 without inhibitor) [ATP/protein/min] | decrease in potency on substitution of R347 with alanine (CFTR R347A) | effect on conformational dynamics (CFTR (E1371Q) [7]) | effect of S1141A substitution on inhibitory potency (S1141A CFTR) | open probability (WT CFTR [8]; 10 µM CFTRinh-172, 3 mM ATP, -150 mV, mean and SE, 0.21 ± 0.05 without inhibitor) | mean open dwell time (WT CFTR [8]; with CFTRinh-172, 3 mM ATP, 487 ± 92 ms without inhibitor) [ms] | effect on channel activity (CFTR) | effect on ATP turnover (CFTR) |
| --- | --- | --- | --- | --- | --- | --- | --- | --- | --- | --- | --- | --- | --- | --- | --- | --- | --- | --- | --- | --- |
| O=C(O)c1ccc(/C=C2\SC(=S)N(c3cccc(C(F)(F)F)c3)C2=O)cc1 [CFTRinh-172] | did not significantly affect | did not significantly affect | comparable level of inhibition | 5.3 ± 3.1 | suppress cyst growth | 0.0011 ± 0.0004 | 3.5 ± 0.9 | block cholera toxin-induced intestinal fluid secretion | 96 | 0.6 ± 0.1 | nearly eliminated its inhibitory effect | not significantly changed | 5.2 ± 1.0 | over 30 fold | did not affect | no effect on inhibitory potency | 0.007 ± 0.003 | 109 ± 14 |  |  |
| CC1(C)Cc2c(sc(NC(=O)c3ccn[nH]3)c2C(N)=O)C(C)(C)O1 [GLPG1837, N-(3-Carbamoyl-5,5,7,7-tetramethyl-5,7-dihydro-4H-thieno[2,3-c]pyran-2-yl)-lH-pyrazole-5-carboxamide] |  |  |  |  |  |  |  |  |  |  |  |  |  |  |  |  |  |  | enhance channel activity | increase ATP turnover |
| CC(C)(C)c1cc(C(C)(C)C)c(NC(=O)c2c[nH]c3ccccc3c2=O)cc1O [Ivacaftor, N-(2,4-Di-tert-butyl-5-hydroxyphenyl)-4-oxo-1,4-dihydroquinoline-3-carboxamide] |  |  |  |  |  |  |  |  |  |  |  |  |  |  |  |  |  |  | enhance channel activity | increase ATP turnover |
